Data: patent US9504674B2, “TrkB agonists and methods of use” (EMORY UNIVERSITY, priority 2010, dated 2016)

Assays:
TrkB = target: T1, TrkB (Rattus norvegicus, UniProt Q63604); assay: TrkB phosphorylation in primary rat cortical neurons (immunoblotting); type: cell-based; details: for TrkB activation (phosphorylation) compared to vehicle control: 500 nM compound, 20 min, primary rat cortical neurons, immunoblotting; for minimal concentration triggering TrkB activation (titration assay): primary cortical neurons, different doses
T1 construct: endogenous in cells; host or cells: primary rat cortical neurons (E17 embryos, 13 DIV)
Experimental: (§1) Primary rat cortical neurons from E17 embryos (13 DIV) were treated with 500 nM various chemicals for 15 min. The neuronal cell lysates were collected and resolved on 10% SDS-PAGE. Immunoblotting was conducted with various antibodies. p-TrkB Y817 antibody was employed at 1:20000-40000 dilution.
as §1, with “days in vitro (DIV))” for “DIV)”, “1:20,000-40,000 dilution (top panel). Equal amount of TrkB was loaded in all of the samples (middle panel). P-Akt 473 ELISA analysis with the neuronal lysates (bottom panel).” for “1:20000-40000 dilution.”
7,8-dihydroxyflavone (7,8-DHF) is a small molecular TrkB agonist. Preliminary structure-activity relationship study (SAR) supports that 7,8-catechol moiety is essential for the agonistic effect by 7,8-DHF. To explore the structure-activity relationship (SAR) in depth, the TrkB stimulatory activity was examined by numerous flavonoid derivatives. The numeric positions and each ring's nomenclature are designated (FIG. 1A). Compounds were dissolved in DMSO, then diluted into […] with 1× PBS (final vehicle contains 10% DMSO/PBS) (FIG. 1B). Primary rat cortical neurons were treated with 500 nM compounds for 20 min. The cell lysates were analyzed by immunoblotting. […] Downstream activation of the TrkB target Akt was tightly correlated with TrkB activation patterns by these derivatives (FIG. 1C, bottom panel). As observed, the hydroxy groups on B ring can regulate 7,8-DHF's stimulatory activity on TrkB receptor. As 2′-hydroxy, especially 3′-hydroxy group, elevates the agonistic effect, whereas 4′-hydroxy group diminishes its stimulatory effect.
To compare the TrkB activation by these synthetic compounds, primary cortical cultures were prepared. Cortical neurons were treated with 500 nM of various compounds for 20 min and cell lysates were collected. […] Replacing the H-bond acceptor O atom with hydrogen bond donor NH abolishes its stimulatory effect. […] On the other hand, 7,8-DHF provoked TrkB activation with the minimal concentration of 100 nM (FIG. 2B, right panels). To further study 4′-DMA-7,8-DHF's kinetics on TrkB activation, primary neurons were treated for various time points. 4′-DMA-7,8-DHF swiftly activated TrkB as soon as 5 minutes following treatment. […] To compare the stimulatory effect on TrkB receptor in mouse brains, 1 mg/kg of the synthesized derivatives were injected into C57BL/6J mice. TrkB activation was monitored at different time points.
Additional compounds are listed as designated from a to m (FIG. 6A). The compounds were dissolved in DMSO, then diluted into 500 μM with 1× PBS (final vehicle contains 10% DMSO/PBS). The primary rat cortical neurons (13 DIV) were treated with 500 nM compounds for 20 min. The cell lysates were analyzed by immunoblotting. […] Moreover, p-Akt ELISA was monitored to quantitatively analyze the agonistic activities of these compounds.

active caspase-3 [1] = assay: Active caspase-3 ELISA in glutamate-treated cortical neurons; type: cell-based, rat; details: 30 min pretreatment, then glutamate 16 h; for caspase-3 activation after glutamate: 50 nM or higher
Experimental: 4′-Dimethylamino-7,8-dihydroxyflavone prevents neurons from apoptosis in a TrkB-dependent manner. Cortical neurons were prepared from E16 rat embryonic. The neurons were pretreated with different doses of compounds as indicated for 30 min, followed by 50 μM glutamate for 16 h. The cell lysates were analyzed by active caspase-3 ELISA.
(§2) To quantitatively compare the anti-apoptotic activity by these two TrkB agonists, cortical neurons were pretreated with various concentrations of 4′-DMA-7,8-DHF and 7,8-DHF for 30 min, followed by […] for 16 h. Cell lysates were quantitatively analyzed with an active caspse-3 ELISA. […] To investigate whether these compounds exert any neuroprotective effects in animals, both compounds (5 mg/kg) were orally injected into mice. At 0, 2 h or 6 h, kainic acid (KA)(20 mg/kg) was administered intraperitoneally. At 2 h, mice were sacrificed and hippocampal regions were prepared. […] This kinetic spectrum tightly coupled to the TrkB activation status observed when treated with 7,8-DHF (FIG. 3C, right panel).

active caspase-3 [2] = assay: Kainic acid (KA)-induced neuronal apoptosis in mice (active caspase-3 immunoblotting); type: in vivo, mouse; details: 5 mg/kg oral
Experimental: C57BL/6J mice were orally administrated with 5 mg/kg of 4′-DMA-7,8-DHF and 7,8-DHF; at different time points, the mice were ip injected with 20 mg/kg KA for 2 h. The brain lysates were analyzed by immunoblotting with anti-p-TrkB, antiactive caspase-3 antibodies, respectively.
Male C57BL/6 mice aged of 60 days were orally injected with a single dose of 4′-DMA-7,8-DHF or 7,8-DHF ([…]). KA (20 mg/kg) (Sigma, MO) was i.p. injected. Animals were continually monitored for 2 h for the onset of seizure activity. At 0, 4 and 8 h following TrkB agonist treatment, the animals were sacrificed and the hippocampal section lysates were analyzed by immunoblotting with p-TrkB, active caspase-3 and total TrkB antibodies.
as §2

Akt and MAPK = assay: Downstream p-Akt / p-MAPK signaling in mouse brain after oral administration (immunoblotting, p-Akt ELISA); type: in vivo; details: 1 mg/kg oral; for Akt and MAPK activation (TrkB signaling) in mouse brain at 2 h: C57BL/6J mice, p-Akt 473 and p-MAPK immunoblotting
Experimental: The data were from two sets of replicated experiments.
1 mg/kg of various compounds were orally administrated into C57 BL/6J mice and TrkB phosphorylation and its downstream signaling cascades including Akt and MAPK in mouse brain were analyzed by immunoblotting at 2 h.
The brain lysates were prepared and analyzed with p-Akt ELISA kit.
The compounds were orally injected (1 mg/kg) into C57BL/6J mice. The TrkB and its downstream signaling cascades activation at 2 h were examined after drug administration with mouse brain tissues. […] The downstream p-Akt and p-MAPK tightly coupled to p-TrkB signals.

[3] = primary neurons, 500 nM, time course

T1 sequence (Q63604 32-821): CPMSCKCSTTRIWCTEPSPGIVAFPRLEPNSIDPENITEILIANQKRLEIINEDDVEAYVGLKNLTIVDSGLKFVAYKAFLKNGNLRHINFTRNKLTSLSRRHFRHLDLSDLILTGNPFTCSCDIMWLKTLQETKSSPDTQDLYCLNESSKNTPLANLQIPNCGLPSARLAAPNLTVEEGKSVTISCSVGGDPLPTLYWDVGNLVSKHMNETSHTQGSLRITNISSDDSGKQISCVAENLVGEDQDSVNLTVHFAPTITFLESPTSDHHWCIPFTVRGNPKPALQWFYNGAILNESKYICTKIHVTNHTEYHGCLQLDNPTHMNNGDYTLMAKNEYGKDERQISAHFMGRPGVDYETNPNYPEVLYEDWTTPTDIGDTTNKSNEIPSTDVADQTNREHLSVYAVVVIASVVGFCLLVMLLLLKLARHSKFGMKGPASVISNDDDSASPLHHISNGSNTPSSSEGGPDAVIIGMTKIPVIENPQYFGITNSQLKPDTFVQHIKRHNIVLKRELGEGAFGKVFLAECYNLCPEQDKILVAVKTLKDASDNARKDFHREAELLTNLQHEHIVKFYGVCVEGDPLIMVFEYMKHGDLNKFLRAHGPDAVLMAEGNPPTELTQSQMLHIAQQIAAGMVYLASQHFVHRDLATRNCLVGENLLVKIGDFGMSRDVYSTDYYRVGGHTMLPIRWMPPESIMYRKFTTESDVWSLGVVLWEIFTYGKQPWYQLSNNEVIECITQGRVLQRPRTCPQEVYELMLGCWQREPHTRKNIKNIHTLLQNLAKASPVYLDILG

Structure (SMILES)	TrkB activation (phosphorylation) compared to vehicle control (TrkB)	TrkB activation (phosphorylation) compared to vehicle control (TrkB; listed as compound a)	agonistic effect on TrkB relative to parental 7,8-DHF (TrkB; from titration assays)	minimal concentration triggering TrkB activation (titration assay) (TrkB) [nM]	time at which TrkB signal decayed back to baseline (TrkB; [3]) [min]	time to TrkB activation following treatment (TrkB; [3]) [min]	inhibition of caspase-3 activation after glutamate (active caspase-3 [1]; 10 nM)	caspase-3 activation after glutamate (active caspase-3 [1])	KA-induced neuronal apoptosis over time after dosing (active caspase-3 [2]; KA 20 mg/kg i.p. at 0, 2 h or 6 h, hippocampal lysates)	Akt and MAPK activation (TrkB signaling) in mouse brain at 2 h (Akt and MAPK)	KA-induced caspase-3 activation at 4 h (active caspase-3 [2]; KA 20 mg/kg i.p., 4 h)	active caspase-3 at 8 h (active caspase-3 [2]; KA 20 mg/kg i.p., 8 h)	Akt activation in mouse brain (p-Akt ELISA), compared with compound i (Akt and MAPK; brain lysates, time course)
CN(C)c1ccc(-c2cc(=O)c3ccc(O)c(O)c3o2)cc1 [4′-DMA-7,8-DHF, 4′-dimethylamino-7,8-dihydroxyflavone]	strongly activated TrkB	activated TrkB better than compounds b to d	about 10 fold	10	30 to 180	5	more robust inhibitory effect than 7,8-DHF	substantially blocked caspase-3 activation	gradually decreased over time	potently activated TrkB signaling in mouse brain			
O=c1cc(-c2ccccc2)oc2c(O)c(O)ccc12 [7,8-DHF, 7,8-dihydroxyflavone, reference compound]	stimulated TrkB activation			100				substantially blocked caspase-3 activation			reduced	slightly increased	
CN(C)c1ccc(-c2cc(=O)c3ccc4nc[nH]c4c3o2)cc1 [compound m, 8-(4-(dimethylamino)phenyl)chromeno[7,8-d]imidazol-6(1H)-one]	exhibited strong p-TrkB activity									potently activated TrkB signaling in mouse brain			more robust and sustained Akt activation than compound i
